These results are taken from US12545677B2, “Compounds useful as factor XIa inhibitors” (JANSSEN PHARMACEUTICA NV, priority 2020, dated 2026).

Read-outs that look alike come from different tables or passages of the source.

A short description of the data set: Rat PK study. Type of data set: in vivo, Sprague-Dawley rats. As to the method: Biological Example 5: PK Studies
Animals: Male Sprague-Dawley rats (7-8 weeks old, body weight 250-300 g) were kept in plastic cages with free access to standard rat diet (Keaoxieli, Beijing, China) and water. The animals were maintained at a temperature of 20-25° C. with a 12-hour light/dark cycle and relative humidity of 40%-70% before the experiment.
Pharmacokinetics in rats: The cannulation of the jugular vein was pre-treated to the rats 2-3 days prior to the study. Test compound (dissolved in PEG400/water (1:1) or suspended in 0.5% HPMC) was administered orally via oral gavage at a dose of 5 or 10 mg/kg to 3 rats, and test compound (dissolved in 20% HPbCD or PEG400/water (1:1)) was injected to the tail vein at a dose of 1 or 2 mg/kg to 3 rats.
Blood samples (approximately 0.2 ml, each) were collected from the jugular vein at 0 (as a pre-dose), 5 (only for IV administration), 15, 30, 60, 120, 240, 360, 480 and 1440 mins post dose. A volume of 0.2 ml of heparinized 0.9% NaCl injectable solution (50 U/mL) was used to flush each cannula immediately after obtaining each blood sample, in order to prevent blood clotting and to compensate for fluid loss. Blood samples were separated by centrifugation, and approximately 0.1 ml aliquot of plasma was stored at −80° C. until analysis.
LC-MS/MS analysis: The analyte was assayed by a liquid chromatography coupled with tandem mass spectrometry (LC-MS/MS) method. The LC-MS/MS system consisted of a Shimadzu HPLC system (Kyoto, Japan) and API 5500 triple-quadrupole mass spectrometer equipped with a turbo electrospray ionization (ESI) source (AB Sciex, Toronto, Canada). LC conditions were as follows: column, Synergi 2.5μ Polar-RP 100A (50*3.0 mm) (Phenomenex, Torrance, CA); gradient elution at 0.5 mL/min with 5% acetonitrile in water containing 0.1% formic acid or 95% acetonitrile in water containing 0.1% formic acid; and injection volume, 10 μL. A multiple reaction monitoring (MRM) method was selected for quantitative analysis. The optimized transitions were Q1→Q3 and M1→M3 for analyte and internal standard, respectively. The instrumental parameters were set as follows: ion spray voltage: 5500 V; curtain gas: 30 psi; nebulizer gas: 50 psi; turbo gas: 50 psi; collision gas: 10 psi; temperature: 450° C.
Data analysis: Standard methods were used to calculate the pharmacokinetic parameters, such as the total area under the plasma concentration-time curve from time 0 to infinity (AUC0-t) and terminal half-life, using non-compartmental analysis (WinNonlin), the peak plasma concentration (Cmax) and time to reach Cmax (Tmax) were determined directly from the experimental data.

With `O=C1C=C(c2c(-n3cnnn3)ccc(Cl)c2F)C[C@H]2CC[C@@H](c3ncc(-c4ccnc(CO)c4F)[nH]3)N12` [Compound of formula (I-A), (3S,8aR)-7-(3-Chloro-2-fluoro-6-(1H-tetrazol-1-yl)phenyl)-3-(5-(3-fluoro-2-(hydroxymethyl)pyridin-4-yl)-1H-imidazol-2-yl)-2,3,8,8a-tetrahydroindolizin-5(1H)-one], where the note is “formulation vehicle: 0.5% HPMC at 10 mg/kg”, the F was 53.4% (formulation vehicle: 0.5% HPMC at 10 mg/kg). For the setting “male, Sprague-Dawley, plasma, IV, 20% HPbCD at 2 mg/kg”, the clearance is 19.6 mL/min/kg. In addition, the half-life was 195 min (male, Sprague-Dawley, plasma, IV, formulation vehicle: 20% HPbCD at 2 mg/kg, read-out: t1/2 (IV) (converted)) and 160 min (male, Sprague-Dawley, plasma, PO, 0.5% HPMC at 10 mg/kg, read-out: t1/2 (PO) (converted)). For the same compound, the peak concentration (Cmax) (male, Sprague-Dawley, plasma, PO, 0.5% HPMC at 10 mg/kg) came to 3770 ng/mL.

What is called clearance is the rate of elimination divided by the concentration. The Cmax is the highest concentration seen after dosing.
